{
  "source": "patent US4428806A",
  "about": "“Process for producing brominated 1,3-dioxolen-2-ones” (priority 1981, dated 1984)",
  "key": {"[1]": {"experiment": "in vitro", "type": "in vitro ADME", "conditions": "pH 1.2", "experimental": "(§1) 1. Test compounds: A and B above\nEach of the test compounds was dissolved in an acidic medium (pH 1.2) consisting of 2.0 g of sodium chloride, 24 ml of 10% hydrochloric acid, 3.2 g of pepsin and 1000 ml of water. The solution was shaken at 37° C., and sampled periodically. The sample was subjected to high-performance liquid chromatography using a reversed phase partition column, and the degree of hydrolysis of each of the test compounds was determined from a decrease in its peak height."}, "[2]": {"experiment": "in vitro", "type": "in vitro ADME", "conditions": "pH 7.5", "experimental": "as §1\nEach of the test compounds was dissolved in a basic medium (pH 7.5) consisting of 35.8 g of disodium phosphate, 6.0 ml of 10% hydrochloric acid and 2.8 g of pancreatin and 1000 ml of water, and the degree of hydrolysis of each test compound was determined as in the case of the acidic medium."}, "[3]": {"experiment": "Conversion to ampicillin in 40% mouse blood (incubation and bioautography)", "type": "in vitro ADME", "experimental": "The resulting ampicillin ester hydrochloride was incubated at 37° C. for 10 minutes in 40% mouse blood, and then bioautographed.\nThe resulting ampicillin (5-phenyl-2-oxo-1,3-dioxolen-4-yl)methyl ester hydrochloride was incubated at 37° C. for […] in 40% mouse blood, and then bioautographed.\nThe product was incubated and bioautographed in the same way as in Referential Example 1."}, "[4]": {"experiment": "Blood level in oral administration (ampicillin concentration in serum, bioassay)", "type": "in vivo, mice (ddY-strain)", "conditions": "mice; for Ratio of the concentration of ampicillin in the serum: 50 mg/kg as ampicillin, ratio to ampicillin trihydrate (C = 1.0)", "experimental": "Each of the test compounds (as an aqueous solution having a concentration of 5 mg/ml as ampicillin) was orally administered in a dose of 50 mg/kg as ampicillin to four week old mice (ddY-strain, body weight about 20 g, five per group) which were caused to fast overnight. The blood was taken from the mice periodically, and the concentration of ampicillin in the serum was measured by a bioassay method. The blood Ampicillin level ratio was calculated from the following equation. [formula]"}},
  "note": "Where a name gives a salt, the structure may show the parent alone. Read-outs that look alike come from different tables or passages of the source.",
  "data": [
    {"smiles": "Cc1oc(=O)oc1COC(=O)[C@@H]1N2C(=O)[C@@H](NC(=O)[C@H](N)c3ccccc3)[C@H]2SC1(C)C", "note": "[A, Ampicillin (5-methyl-2-oxo-1,3-dioxolen-4-yl) methyl ester hydrochloride]", "values": [
      {"measurement": "metabolised at 1 h", "setting": "[1]; acidic medium with pepsin", "value": 7, "unit": "%"},
      {"measurement": "metabolised at 4 h", "setting": "[1]; acidic medium with pepsin", "value": 20, "unit": "%"},
      {"measurement": "Stability in the acidic medium (in words)", "setting": "[1]", "value": "much more stable than the known control compound (B)"},
      {"measurement": "metabolised at 1 h", "setting": "[2]; basic medium with pancreatin", "value": 80, "unit": "%"},
      {"measurement": "Stability in the basic medium (in words)", "setting": "[2]", "value": "much more stable than the known control compound (B)"},
      {"measurement": "Conversion to ampicillin in mouse blood", "setting": "[3]; 40% mouse blood, 37° C., 10 minutes", "value": "completely changed to ampicillin"},
      {"measurement": "Absorption, conversion to ampicillin and blood level (in words)", "setting": "[4]; compared with C and B", "value": "easily absorbed and converted back to the original ampicillin in vivo, and shows a high blood level over a longer period of time than ampicillin (C) and the known ampicillin ester (B)"}
    ]},
    {"smiles": "CC1(C)S[C@@H]2[C@H](NC(=O)[C@H](N)c3ccccc3)C(=O)N2[C@H]1C(=O)OC1OC(=O)c2ccccc21", "note": "(stereo partly drawn) [B, Ampicillin phthalidyl ester hydrochloride]", "values": [
      {"measurement": "metabolised at 20 h", "setting": "[1]; acidic medium with pepsin", "value": 100, "unit": "%"},
      {"measurement": "metabolised at 20 min", "setting": "[2]; basic medium with pancreatin", "value": 90, "unit": "%"},
      {"measurement": "metabolised at 1 h", "setting": "[2]; basic medium with pancreatin", "value": 100, "unit": "%"}
    ]},
    {"smiles": "CC1(C)S[C@@H]2[C@H](NC(=O)[C@H](N)c3ccccc3)C(=O)N2[C@H]1C(=O)O", "note": "[C, Ampicillin trihydrate]", "values": [
      {"measurement": "Ratio of the concentration of ampicillin in the serum", "setting": "[4]; 15 min", "value": 1.0},
      {"measurement": "Ratio of the concentration of ampicillin in the serum", "setting": "[4]; 30 min", "value": 1.0},
      {"measurement": "Ratio of the concentration of ampicillin in the serum", "setting": "[4]; 60 min", "value": 1.0},
      {"measurement": "Ratio of the concentration of ampicillin in the serum", "setting": "[4]; 90 min", "value": 1.0},
      {"measurement": "Ratio of the concentration of ampicillin in the serum", "setting": "[4]; 120 min", "value": 1.0},
      {"measurement": "Ratio of the concentration of ampicillin in the serum", "setting": "[4]; 180 min", "value": 1.0}
    ]},
    {"smiles": "CC1(C)S[C@@H]2[C@H](NC(=O)[C@H](N)c3ccccc3)C(=O)N2[C@H]1C(=O)OC1CCCc2oc(=O)oc21", "note": "(stereo partly drawn) [Referential Example 1, ampicillin (2,3-carbonyldioxy-2-cyclohexenyl) ester hydrochloride]", "values": [
      {"measurement": "Conversion to ampicillin in mouse blood", "setting": "[3]", "value": "changed completely to ampicillin"}
    ]},
    {"smiles": "CC1(C)S[C@@H]2[C@H](NC(=O)[C@H](N)c3ccccc3)C(=O)N2[C@H]1C(=O)OCc1oc(=O)oc1-c1ccccc1", "note": "[Referential Example 2, ampicillin (5-phenyl-2-oxo-1,3-dioxolen-4-yl)methyl ester hydrochloride]", "values": [
      {"measurement": "Conversion to ampicillin in mouse blood", "setting": "[3]", "value": "completely changed to ampicillin"}
    ]}
  ]
}
